The values below come from patent publication US20050170485A1, “Culture having phenol oxidase-like activity” (priority 2002, published 2005).

Holding throughout (assay type): biochemical
The test system of experiment [1] is culture of Flammulina velutipes strain IFO 30601. In words: Substrate specificity of the culture (phenol oxidase-like activity, Table 1). As to conditions: pH 7.0; determined wavelength per substrate (Table 1).
Experiment [2] concerns the target T1, bilirubin oxidase from the strain of the genus Myrothecium (Albifimbria verrucaria, UniProt Q12737).
T1 sequence (Q12737 39-572): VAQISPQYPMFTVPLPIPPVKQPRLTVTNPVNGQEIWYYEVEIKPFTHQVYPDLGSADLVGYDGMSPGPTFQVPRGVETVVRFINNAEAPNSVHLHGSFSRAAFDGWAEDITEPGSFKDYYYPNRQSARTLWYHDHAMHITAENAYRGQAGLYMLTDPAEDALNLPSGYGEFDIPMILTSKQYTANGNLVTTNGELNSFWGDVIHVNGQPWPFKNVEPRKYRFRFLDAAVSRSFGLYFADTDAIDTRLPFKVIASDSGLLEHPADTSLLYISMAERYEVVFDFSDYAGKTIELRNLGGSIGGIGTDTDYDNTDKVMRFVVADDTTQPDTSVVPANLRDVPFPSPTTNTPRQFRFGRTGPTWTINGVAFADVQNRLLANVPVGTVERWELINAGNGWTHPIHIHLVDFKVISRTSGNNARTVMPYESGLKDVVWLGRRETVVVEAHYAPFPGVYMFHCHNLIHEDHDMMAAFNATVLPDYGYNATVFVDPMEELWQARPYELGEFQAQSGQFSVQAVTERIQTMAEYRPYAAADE
The experiment in a line: Oxidative coupling reaction with 4-aminoantipyrine by bilirubin oxidase (comparison). As to conditions: reaction pH 8.0, substrate 2.0 mM. Here is the method: (§1) Concretely, 190 μl of 105.3 mM phosphate buffer (pH 7.0) containing 0.4 μmol of a substrate and 4.0 μmol of 4-aminoantipyrine was pre-incubated in wells of a 96-well microplate [manufactured by Corning, Costor (registered trademark) 3368] at 25° C. for 1 minute. Next, 10 μl of the above-mentioned culture solution was added to the resulting mixture, and thereafter, the mixture was incubated for 1 hour. A change in absorbance at 490 nm or 450 nm was determined for the resulting product. One unit (U) of the activity regarding the oxidative coupling reaction was defined as an amount for increasing the absorbance by 1 per one minute.
In addition, for the comparison, the examination was made in the same manner for bilirubin oxidase from the strain of the genus Myrothecium except that the above-mentioned buffer was replaced with 105.3 mM Tris-HCl buffer (pH 8.0).

For experiment [3], the target named is T2, bilirubin oxidase from the strain belonging to the genus Myrothecium (Albifimbria verrucaria, UniProt Q12737).
T2 sequence (Q12737 39-572): T1 sequence (Q12737 39-572)
In words: Direct oxidation reaction by bilirubin oxidase (comparison). The arrangement: concentration or dose not given beside the values. As to conditions: reaction pH 7.0; 2-chloro 1,4-phenylenediamine = 100. The procedure: (§2) Concretely, 180 μl of 0.89 mM sodium phosphate buffer (pH 7.0) containing […] substrate was pre-incubated in wells of a 96-well microplate [manufactured by Corning, Costor (registered trademark) 3368] at 25° C. for 1 minute. Next, 20 μl of the above-mentioned culture solution was added to the resulting mixture. A change in absorbance at 490 nm, 450 nm or 405 nm was determined for the resulting product, depending on the substrate. Here, 1 U (unit) of the activity regarding the direct oxidative reaction was defined as an amount for increasing the absorbance by 1 per one minute.
(§3) In addition, for the comparison, the substrate specificities at pH 7.0 for laccase from Japanese lacquer and bilirubin oxidase from the strain belonging to the genus Myrothecium were also examined in the same manner.
The relative activity (%) for each substrate is shown in Table 7, in which the measured value for a case where a representative chemical dye 2-chloro 1,4-phenylenediamine was used as a substrate is 100.

Experiment [4] deals with laccase from Japanese lacquer. The experiment in a line: Direct oxidation reaction by laccase (comparison). The conditions noted are these: reaction pH 7.0; 2-chloro 1,4-phenylenediamine = 100. Here is the method:
Next, 20 μl of the above-mentioned culture solution was added to the resulting mixture. A change in absorbance at 490 nm, 450 nm or 405 nm was determined for the resulting product, depending on the substrate. Here, 1 U (unit) of the activity regarding the direct oxidative reaction was defined as an amount for increasing the absorbance by 1 per one minute.
as §3

In experiment [5] the test system is culture of Flammulina velutipes strain IFO 30601. The experiment in a line: Oxidative coupling reaction with 4-aminoantipyrine by the culture. As to conditions: for activity of the culture for the substrate in words, oxidative coupling reaction: pH 7.0; for Specific Activity, Culture (oxidative coupling with 4-aminoantipyrine): reaction pH 7.0, 25° C., substrate 2.0 mM. The procedure: Next, the oxidative coupling reaction of the culture obtained in (2) in Example 1 mentioned above was determined by using color development as an index by the oxidative condensation of the substrate (hydrogen donor) with 4-aminoantipyrine, catalyzed by the culture of the present invention.
As the hydrogen donors, there were used phenolic compounds (phenol, 2-methoxyphenol, 2,6-dimethoxyphenol, catechol, resorcinol, hydroquinone, pyrogallol, gallic acid, propyl gallate, 1-naphthol, catechin), aminophenolic compounds (o-aminophenol, m-aminophenol, p-aminophenol), diaminophenolic compounds (o-phenylenediamine, m-phenylenediamine, p-phenylenediamine), and heterocyclic compounds (5-hydroxyindole, 2,6-diaminopyridine).
The above-mentioned culture solution was added to a reaction system containing 4-aminoantipyrine and an optional hydrogen donor. Thereafter, the activity of the culture of the present invention was assayed by determining a change in absorbance at 490 nm for the phenolic compound, the diaminophenolic compound and the heterocyclic compound, or determining a change in absorbance at 450 nm for the aminophenolic compound. As to a substrate hardly soluble in water, there was used one obtained by dissolving the substrate in a small amount of dimethyl sulfoxide and diluting the resulting solution with deionized water to a desired concentration. In Table 4, DMSO is an abbreviation for dimethyl sulfoxide.
as §1

Experiment [6] has the same test system. The experiment in a line: Direct oxidation reaction by the culture. The conditions noted are these: for activity of the culture for the substrate in words, direct oxidation reaction: pH 7.0; for activity of the culture compared with bilirubin oxidase from the genus Myrothecium, direct oxidation / activity of the culture compared with laccase from Japanese lacquer, direct oxidation: pH 7.0, relative activities of Table 7; for Relative Activity, Culture (direct oxidation): reaction pH 7.0, 2-chloro 1,4-phenylenediamine = 100. Here is the method:
Further, the direct oxidation reaction of the culture obtained in the above-mentioned example was determined by using color development due to oxidative polymerization of a substrate generated by the direct action of the culture of the present invention on the substrate as an index.
As the substrates, there were used diaminophenolic compounds (2-chloro 1,4-phenylenediamine, p-phenylenediamine, 2,5-diaminotoluene, N-phenyl-p-phenylenediamine, toluylene-3,4-diamine, m-phenylenediamine), aminophenolic compounds (o-aminophenol, m-aminophenol, 5-amino-o-cresol, p-aminophenol, p-methylaminophenol), and phenolic compounds (2,6-dimethoxyphenol, catechol, resorcinol, hydroquinone, pyrogallol, gallic acid, propyl gallate, 1-naphthol, […], 2,3,4-trihydroxybenzophenone, 2,3,4,4-tetrahydroxybenzophenone). As to a substrate hardly soluble in water, there was used one obtained by dissolving the substrate in a small amount of dimethyl sulfoxide and diluting the resulting solution with deionized distilled water to a desired concentration. In Table 6, %” indicates volume/volume %.
as §2

Structures are written as SMILES.

In the case of `CCn1c(=NN=c2sc3cc(S(=O)(=O)O)ccc3n2CC)sc2cc(S(=O)(=O)O)ccc21` [ABTS], the “U (activity of the culture on the substrate)” value in experiment [1] is 0.683 U.

Consider `Nc1ccccc1O` [o-Aminophenol], for which the “Specific Activity, Bilirubin Oxidase from Strain Belonging to Genus Myrothecium (oxidative coupling with 4-aminoantipyrine)” value (“Specific Activity, Bilirubin Oxidase” for short) in experiment [2] is listed as 15.1 U/mg Protein. Besides, the “U (activity of the culture on the substrate)” value in experiment [1] is recorded as 0.262 U. In experiment [3], the “Relative Activity, Bilirubin Oxidase from Strain Belonging to Genus Myrothecium (direct oxidation)” value (shortened to “Relative Activity, Bilirubin Oxidase”) was found to be 86%. Besides, in experiment [4], the “Relative Activity, Laccase from Japanese Lacquer (direct oxidation)” value (shortened to “Relative Activity, Laccase”) was 103%. Moreover, in experiment [5], the “activity of the culture for the substrate in words, oxidative coupling reaction” value (“activity … oxidative coupling reaction” below) is listed as “especially high activity” and the “Specific Activity, Culture (oxidative coupling with 4-aminoantipyrine)” value (from here on “Specific Activity, Culture”) stood at 22.4 U/mg Protein. Besides, in experiment [6], the “activity of the culture for the substrate in words, direct oxidation reaction” value is “especially high activity”; the “activity of the culture compared with bilirubin oxidase from the genus Myrothecium, direct oxidation” value was “even higher activity”; the “activity of the culture compared with laccase from Japanese lacquer, direct oxidation” value was “even higher activity”; the “Relative Activity, Culture (direct oxidation)” value (“Relative Activity, Culture” for short) stood at 650%.

For the molecule `O=C(O)c1cc(O)c(O)c(O)c1` [Gallic acid], in experiment [2], the “Specific Activity, Bilirubin Oxidase” value is 14.9 U/mg Protein. The “Relative Activity, Bilirubin Oxidase” value in experiment [3] was 88%. For the same molecule, the “Relative Activity, Laccase” value in experiment [4] worked out at 9%. For the same molecule, the “Specific Activity, Culture” value in experiment [5] is 0.9 U/mg Protein. Besides, in experiment [6], the “activity of the culture compared with laccase from Japanese lacquer, direct oxidation” value is recorded as “even higher activity” and the “Relative Activity, Culture” value was found to be 65%.

On to `Oc1cccc2[nH]ccc12` [4-Hydroxyindole], for which the “U (activity of the culture on the substrate)” value in experiment [1] amounted to 0.078 U.

As to `Oc1cccc(O)c1O` [Pyrogallol], the “Specific Activity, Bilirubin Oxidase” value in experiment [2] is on record as −27.6 U/mg Protein. Besides, the “Relative Activity, Bilirubin Oxidase” value in experiment [3] stood at 104%. Besides, the “Relative Activity, Laccase” value in experiment [4] is on record as 187%. Further, the “Specific Activity, Culture” value in experiment [5] was determined as 3.2 U/mg Protein. In experiment [6], the “activity of the culture for the substrate in words, direct oxidation reaction” value is given as “high activity” and the “Relative Activity, Culture” value came to 184%.

Turning to `Oc1cccc(O)c1` [Resorcinol], the “Specific Activity, Bilirubin Oxidase” value in experiment [2] is recorded as 25.6 U/mg Protein. In addition, in experiment [3], the “Relative Activity, Bilirubin Oxidase” value worked out at 91%. Moreover, in experiment [4], the “Relative Activity, Laccase” value came to 25%. For the same molecule, the “Specific Activity, Culture” value in experiment [5] is 5.7 U/mg Protein. Moreover, in experiment [6], the “activity of the culture compared with laccase from Japanese lacquer, direct oxidation” value is recorded as “higher activity” and the “Relative Activity, Culture” value was determined as 75%.

Take `COc1cc(/C=N/N=C/c2cc(OC)c(O)c(OC)c2)cc(OC)c1O` [Syringaldazine]: the “U (activity of the culture on the substrate)” value in experiment [1] was 0.141 U.

In the case of `Nc1cccc(O)c1` [m-Aminophenol], the “Specific Activity, Bilirubin Oxidase” value in experiment [2] is 1.3 U/mg Protein. Also, the “Relative Activity, Bilirubin Oxidase” value in experiment [3] amounted to 3%. Further, the “Relative Activity, Laccase” value in experiment [4] is 3%. Besides, the “Specific Activity, Culture” value in experiment [5] amounted to 8.8 U/mg Protein. Also, in experiment [6], the “activity of the culture compared with bilirubin oxidase from the genus Myrothecium, direct oxidation” value is “even higher activity”; the “activity of the culture compared with laccase from Japanese lacquer, direct oxidation” value is listed as “even higher activity”; the “Relative Activity, Culture” value worked out at 40%.

Take `CCCOC(=O)c1cc(O)c(O)c(O)c1` [Propyl Gallate]: the “Specific Activity, Bilirubin Oxidase” value in experiment [2] is given as −0.1 U/mg Protein. Moreover, the “Relative Activity, Bilirubin Oxidase” value in experiment [3] is 85%. In experiment [4], the “Relative Activity, Laccase” value is recorded as 14%. In addition, the “Specific Activity, Culture” value in experiment [5] was −0.2 U/mg Protein. Further, in experiment [6], the “activity of the culture compared with bilirubin oxidase from the genus Myrothecium, direct oxidation” value is listed as “higher activity”; the “activity of the culture compared with laccase from Japanese lacquer, direct oxidation” value is listed as “higher activity”; the “Relative Activity, Culture” value turned out to be 34%.

On to `Oc1cccc2ccccc12` [1-Naphthol], for which the “Specific Activity, Bilirubin Oxidase” value in experiment [2] was found to be 33.0 U/mg Protein. In addition, the “Relative Activity, Bilirubin Oxidase” value in experiment [3] was 50%. The “Relative Activity, Laccase” value in experiment [4] is listed as 17%. Also, in experiment [5], the “activity … oxidative coupling reaction” value was “especially high activity” and the “Specific Activity, Culture” value worked out at 18.1 U/mg Protein. Besides, in experiment [6], the “activity of the culture compared with bilirubin oxidase from the genus Myrothecium, direct oxidation” value is recorded as “even higher activity” and the “Relative Activity, Culture” value is reported as 17%.

Turning to `Oc1ccccc1O` [Catechol], in experiment [2], the “Specific Activity, Bilirubin Oxidase” value was 16.0 U/mg Protein. In experiment [1], the “U (activity of the culture on the substrate)” value was determined as 0.029 U. For the same molecule, the “Relative Activity, Bilirubin Oxidase” value in experiment [3] is 5%. The “Relative Activity, Laccase” value in experiment [4] was 2%. In addition, in experiment [5], the “activity … oxidative coupling reaction” value was “especially high activity” and the “Specific Activity, Culture” value is given as 23.3 U/mg Protein. Also, in experiment [6], the “activity of the culture compared with bilirubin oxidase from the genus Myrothecium, direct oxidation” value is on record as “higher activity”; the “activity of the culture compared with laccase from Japanese lacquer, direct oxidation” value was “even higher activity”; the “Relative Activity, Culture” value is 21%.

Take `COc1ccccc1O` [2-Methoxyphenol]: the “Specific Activity, Bilirubin Oxidase” value in experiment [2] is 2.5 U/mg Protein. In addition, the “U (activity of the culture on the substrate)” value in experiment [1] worked out at 0.117 U. Also, in experiment [5], the “activity … oxidative coupling reaction” value was “especially high activity” and the “Specific Activity, Culture” value came to 14.5 U/mg Protein.

As for `N[C@@H](Cc1ccc(O)cc1)C(=O)O` [L-Tyrosine], in experiment [1], the “U (activity of the culture on the substrate)” value was found to be 0.018 U.
